# Results published in patent US4980377A, “1-(aminophenyl)-2-aminopropanone derivatives” (Laboratoire L. Lafon, priority 1984, dated 1990).
# “Also recorded” adds a separate entry of the source. Structures can show the parent of a compound that is named as a salt.
# Experiments:
# mice [1] = experiment: Overall behavior and reactivities in mice; assay type: in vivo, mouse; conditions: dose not stated
# Description: (§1) In the neuropsychopharmacological study which follows, a solution of CRL 41 153 in distilled water (pH 1.5) was administered intraperitoneally in a volume of 20 ml/kg to male mice and 5 ml/kg to male rats.
# (§2) Groups of three animals are observed before and then 0.25 hour, 0.50 hour, 1 hour, 2 hours, 3 hours and 24 hours after the administration of CRL 41 153.
# rats [2] = experiment: Overall behavior and reactivities in rats; assay type: in vivo, rat; conditions: dose not stated
# Description: as §1, §2
# mice [3] = experiment: Interaction with apomorphine in mice; assay type: in vivo, mouse; conditions: i.p.
# Description: Groups of 6 mice receive CRL 41 153 0.5 hour before the subcutaneous injection of 1 or 16 mg/kg of apomorphine.
# rats [4] = experiment: Interaction with apomorphine in rats; assay type: in vivo, rat; conditions: i.p.
# Description: CRL 41 153 is administered to groups of 6 rats 0.5 hour before the subcutaneous injection of 0.5 mg/kg of apomorphine.
# rats [5] = experiment: Interaction with amphetamine; assay type: in vivo, rat; conditions: i.p.
# Description: Amphetamine (2 mg/kg) is injected intraperitoneally into groups of 6 rats 30 minutes after the administration of CRL 41 153. […] 4 mg/kg and 16 mg/kg, CRL 41 153 potentiates the intensity and duration of the stereotypies induced by amphetamine.
# mice [6] = experiment: Interaction with reserpine; assay type: in vivo, mouse; conditions: i.p.
# Description: Four hours after the intraperitoneal injection of 2.5 mg/kg of reserpine, groups of 6 mice receive CRL 41 153.
# mice [7] = experiment: Interaction with oxotremorine; assay type: in vivo, mouse; conditions: i.p.
# Description: CRL 41 153 is administered to groups of 6 mice 0.5 hour before the intraperitoneal injection of 0.5 mg/kg of oxotremorine.
# mice [8] = experiment: Spontaneous motility; assay type: in vivo, mouse; conditions: i.p.
# Description: 0.5 hour after they have received CRL 41 153, the mice (6 per dose, 12 control animals) are placed in an actimeter, where their motility is recorded for 30 minutes.
# mice [9] = experiment: Motility reduced by habituation to the enclosure; assay type: in vivo, mouse; conditions: i.p.
# Description: After they have stayed In the actimeters for 18 hours, (he mice (6 per dose, 12 control animals) receive CRL 41 153. They are immediately returned to their respective enclosures and, half an hour later, their motility is recorded for 30 minutes.
# mice [10] = experiment: Motility reduced by hypoxic aggression; assay type: in vivo, mouse; conditions: i.p.
# Description: Half an hour after they have received CRL 41 153, the mice (10 per dose, 20 control animals) are subjected to acute hypobaric anoxia [pressure reduction of 600 mm Hg (i.e. about 8×10^4 Pa) in 90 seconds; release of vacuum in 45 seconds] and are then placed in an actimeter, where their motility is recorded for 10 minutes.
# mice [11] = experiment: Interaction with barbital; assay type: in vivo, mouse; conditions: i.p., barbital 220 mg/kg
# Description: Half an hour after the administration of CRL 41 153, groups of 10 mice receive an intraperitoneal injection of barbital (220 mg/kg).
# mice [12] = experiment: Behavioral despair; assay type: in vivo, mouse; conditions: forcibly immersed mice, i.p.
# Text: Half an hour after they have received CRL 41 153, groups of 6 mice are placed in a beaker filled with water to a height of 6 cm. The total period of immobility between the 2nd and 6th minutes following immersion is noted.
# dogs = experiment: Cardiovascular study in anesthetized dogs; assay type: in vivo, dog
# Outline: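 Measurements: blood pressure, heart rate, femoral and vertebral arterial flow, rectal temperature, skin colour, and for CRL 41 194 bile colour via bile-duct catheter. Doses rose stepwise 0.1–10 mg/kg intraduodenally in solution under nembutal anaesthesia; two dogs got CRL 41 194, four CRL 41 221.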
# [13] = system: cellular and humoral immunity; experiment: Test for cells forming lysis areas; conditions: in vivo
# [14] = system: cellular and humoral immunity; experiment: Delayed hypersensitivity to the red blood corpuscles of sheep; assay type: in vivo
# man = experiment: Clinical study: treatment of depressions; assay type: in vivo, human
# [15] = system: gravid White New Zealand female rabbits; experiment: Teratogenicity in gravid White New Zealand rabbits; assay type: in vivo, rabbit; conditions: day 5 to day 18 of gestation; for Affected foetuses, %: normal limit 1.5%
# Outline: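 Fetuses harvested by cesarean on gestation day 29 were scored for number and for any malformation (limb blockade, anury, tail or skull defects, exencephaly).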
# [16] = pH of solutions in distilled water; assay type: physicochemical
# Description: The neuropsychopharmacological study was undertaken according to the procedures described above for CRL 41 153, CRL 41 213 being adminstered intraperitoneally, in solution in distilled water, in a volume of 20 ml/kg to male mice and a volume of 5 ml/kg to male rats, and the pH of the injected solution varying with the concentration of CRL 41 213 according to the data given in Table II below.
# CNS = experiment: Neuropsychopharmacological profile as a whole; assay type: in vivo, mice and rats
# Description: as §1
# immunity = experiment: Immunological study (overall); conditions: in vivo; dihydrochloride
# [17] = anesthetized dogs, intraduodenal
compound,measurement,setting,value
"CC(C(=O)c1ccc(N)cc1)N1CCOCC1 (stereo not shown) [CRL 41 237, 1-(4-aminophenyl)-2-morpholinopropanone dihydrochloride]",Overall behavior: observed effects (summary),mice [1],excitation with hyperreactivity in mice and rats
same,Stereotype movements (summary),mice [1],the presence of stereotype movements in mice and rats
same,Overall behavior: observed effects (summary),rats [2],excitation with hyperreactivity in mice and rats
same,Stereotype movements (summary),rats [2],the presence of stereotype movements in mice and rats
same,Effect on hypothermia induced by apomorphine,mice [3],antagonism of the hypothermia
same,Effect on stereotypies induced by apomorphine,rats [4],potentiation of the stereotypies
same,Effect on stereotypies induced by amphetamine,rats [5],potentiation of the stereotypies
same,Effect on hypothermia induced by reserpine,mice [6],antagonism of the hypothermia
same,Effect on ptosis induced by reserpine,mice [6],antagonism of the ptosis induced by reserpine
same,Effect on hypothermic action of oxotremorine,mice [7],antagonism of the hypothermia
same,Effect on trembling induced by oxotremorine,mice [7],antagonism of the trembling induced by oxotremorine
same,Spontaneous motor activity,mice [8],an increase in the spontaneous motor activity of mice
same,Motor activity of mice accustomed to their enclosure,mice [9],resumption in the motor activity of mice accustomed to their enclosure
same,Motor recovery of mice after hypobaric hypoxia,mice [10],improvement in the motor recovery
same,Duration of the sleep induced by barbital,mice [11],a reduction in the duration of the sleep induced by barbital
same,Period of immobility due to despair,mice [12],a reduction in the period of immobility
same,Femoral flow,"dogs; anesthetized dog, intravenous, additional 10 mg/kg",caused an increase in the femoral flow
same,Effect on hypertension induced by norepinephrine,dogs; anesthetized dogs,distinctly increases the hypertension induced by norepinephrine
same,Effects of isoprenaline (not further specified),dogs; anesthetized dogs,does not modify the effects of isoprenaline
same,Rectal temperature,dogs; anesthetized dogs,The rectal temperature rises gradually
same,Skin temperature,dogs; anesthetized dogs,a large increase in the skin temperature
same,Blood pressure,dogs; [17],No action was observed on the blood pressure
same,Femoral flow,dogs; [17],"No action was observed on the blood pressure, the femoral flow and the vertebral flow"
same,Heart rate,dogs; [17],slight tachycardiac effect at 20 mg/kg
same,Vertebral flow,dogs; [17],"No action was observed on the blood pressure, the femoral flow and the vertebral flow"
same,Activity in the test for cells forming lysis areas,[13],"strong activity according to the abovementioned test for cells forming lysis areas, at a dose of 100 mg/kg, administered orally"
same,Activity on the delayed hypersensitivity reaction,[14],"weaker activity on the abovementioned delayed hypersensitivity reaction to red blood corpuscles of sheep, at doses of 0.1 mg/kg to 10 mg/kg, administered orally"
same,Result in the treatment of depressions,man,good results were obtained by oral administration in the treatment of depressions at a daily dose of -0 mg
same,"Affected foetuses, number",[15]; 5 mg/kg daily,0
same,Total foetuses (live),[15]; 5 mg/kg daily,91
same,"Affected foetuses, %",[15]; 5 mg/kg daily,0%
same,"Affected foetuses, number",[15]; 10 mg/kg daily,1
same,Total foetuses (live),[15]; 10 mg/kg daily,96
same,"Affected foetuses, %",[15]; 10 mg/kg daily,1.04%
same,"Affected foetuses, number",[15]; 50 mg/kg daily,1
same,Total foetuses (live),[15]; 50 mg/kg daily,88
same,"Affected foetuses, %",[15]; 50 mg/kg daily,1.13%
same,pH,[16]; 0.1 g/liter in distilled water,5.0
same,pH,[16]; 0.2 g/liter in distilled water,4.5
same,pH,[16]; 0.4 g/liter in distilled water,4.0
same,pH,[16]; 0.8 g/liter in distilled water,3.5
same,pH,[16]; 1.6 g/liter in distilled water,3.0
same,pH,[16]; 3.2 g/liter in distilled water,2.5
same,pH,[16]; 6.4 g/liter in distilled water,2.0
same,pH,[16]; 25 g/liter in distilled water,1.5
same,pH,[16]; 50 g/liter in distilled water,1.0
same,pH,[16]; ≤0.05 g/liter in distilled water,5.5
same,Stimulant effects (overall),CNS; conclusion of the tests,stimulant effects
same,α-adrenergic stimulant effects (overall),CNS; conclusion of the tests,effects showing peripheral α-adrenergic stimulation
same,Antidepressant effects (overall),"CNS; conclusion of the tests, dihydrochloride",good antidepressant; also recorded: antidepressant effects
same,"Peripheral α-adrenergic signs (mydriasis, salivation, lacrimation, exophthalmos)","CNS; species and dose not stated, dihydrochloride",mydriasis
same,Immunological effect (overall),immunity,immunostimulant or immunomodulating effects; also recorded: immunostimulant effects
